# Results taken from PubChem BioAssay AID588524 (Sanford-Burnham Center for Chemical Genomics, 2011).
# Biological target: Apoptotic protease-activating factor 1 (Homo sapiens) (UniProt O14727)
# Assay: Apaf-1 inhibitor potency, dose response, fluorescence, uHTS hits (AID 588524)
# Settings: Apaf-1 apoptosome assay, fluorescence read-out
# Apoptotic protease-activating factor 1 (Homo sapiens), sequence (O14727 whole entry, looked up): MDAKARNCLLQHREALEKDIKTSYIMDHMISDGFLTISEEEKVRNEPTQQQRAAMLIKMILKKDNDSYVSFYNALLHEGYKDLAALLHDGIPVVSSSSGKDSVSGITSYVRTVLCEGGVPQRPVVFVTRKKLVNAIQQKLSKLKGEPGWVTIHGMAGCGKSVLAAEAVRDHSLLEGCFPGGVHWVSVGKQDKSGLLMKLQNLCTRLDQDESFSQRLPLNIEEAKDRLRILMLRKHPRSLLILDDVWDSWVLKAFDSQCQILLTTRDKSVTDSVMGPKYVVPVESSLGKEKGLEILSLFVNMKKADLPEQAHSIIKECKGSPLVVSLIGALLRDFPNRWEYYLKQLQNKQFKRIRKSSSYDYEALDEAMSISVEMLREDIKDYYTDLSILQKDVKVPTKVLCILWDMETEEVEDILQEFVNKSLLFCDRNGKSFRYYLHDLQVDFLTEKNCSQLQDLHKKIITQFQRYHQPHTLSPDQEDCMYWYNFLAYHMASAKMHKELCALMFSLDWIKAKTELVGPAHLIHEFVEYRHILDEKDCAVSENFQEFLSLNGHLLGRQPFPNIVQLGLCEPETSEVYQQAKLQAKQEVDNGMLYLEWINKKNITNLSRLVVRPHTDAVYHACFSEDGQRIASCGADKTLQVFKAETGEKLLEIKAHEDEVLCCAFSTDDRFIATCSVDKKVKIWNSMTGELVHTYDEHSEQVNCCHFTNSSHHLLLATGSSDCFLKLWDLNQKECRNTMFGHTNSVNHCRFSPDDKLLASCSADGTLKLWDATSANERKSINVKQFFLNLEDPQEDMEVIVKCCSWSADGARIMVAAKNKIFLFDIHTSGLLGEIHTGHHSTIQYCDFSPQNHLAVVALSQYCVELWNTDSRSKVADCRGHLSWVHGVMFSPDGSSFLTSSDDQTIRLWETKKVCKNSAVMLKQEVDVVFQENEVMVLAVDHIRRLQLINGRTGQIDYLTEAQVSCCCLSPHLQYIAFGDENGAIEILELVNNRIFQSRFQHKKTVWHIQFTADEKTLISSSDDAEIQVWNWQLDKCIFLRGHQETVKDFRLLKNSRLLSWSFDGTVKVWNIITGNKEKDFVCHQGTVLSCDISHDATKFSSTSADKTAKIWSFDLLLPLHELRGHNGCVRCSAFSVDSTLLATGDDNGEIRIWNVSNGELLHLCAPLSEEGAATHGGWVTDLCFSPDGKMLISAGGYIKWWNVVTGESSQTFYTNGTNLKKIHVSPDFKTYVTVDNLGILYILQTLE
row,Compound,IC50 [µM]
1,C#CCOCCOCCOCCNc1nc(N2CCN(C(=O)CCCCCCCCCCNC(=O)Cn3cc(CCCCCN)nn3)CC2)nc(N2CCN(C(=O)CCCCCCCCCCNC(=O)[C@H]([C@@H](C)CC)n3cc(CCCCN=C(N)N)nn3)CC2)n1,12.9
2,C#CCOCCOCCOCCNc1nc(N2CCN(C(=O)CCCCCCCCCCNC(=O)Cn3cc(CCCCCN)nn3)CC2)nc(N2CCN(C(=O)CCCCCCCCCCNC(=O)[C@H](CO)n3cc(CCCSC)nn3)CC2)n1,24.6
3,C#CCOCCOCCOCCNc1nc(N2CCN(C(=O)CCCCCCCCCCNC(=O)[C@@H](CCSC)n3cc(CCO)nn3)CC2)nc(N2CCN(C(=O)CCCCCCCCCCNC(=O)[C@H](CO)n3cc(CCCCCN)nn3)CC2)n1,40
4,C#CCOCCOCCOCCNc1nc(N2CCN(C(=O)CCCCCCCCCCNC(=O)Cn3cc(CCCCCN)nn3)CC2)nc(N2CCN(C(=O)CCCCCCCCCCNC(=O)Cn3cc(CCCCCN)nn3)CC2)n1,34.9
5,C#CCOCCOCCOCCNc1nc(N2CCN(C(=O)CCCCCCCCCCNC(=O)[C@H](CCCCN)n3cc(C)nn3)CC2)nc(N2CCN(C(=O)CCCCCCCCCCNC(=O)[C@H](CCCN=C(N)N)n3cc(C[C@@H](C)CC)nn3)CC2)n1,15.3
6,C#CCOCCOCCOCCNc1nc(N2CCN(C(=O)CCCCCCCCCCNC(=O)[C@H](CCCCN)n3cc(CCO)nn3)CC2)nc(N2CCN(C(=O)CCCCCCCCCCNC(=O)[C@H](CCCCN)n3cc(CCO)nn3)CC2)n1,27.1
7,CNc1ccc2nc3ccccc3[n+](C)c2c1,11.5
8,C#CCOCCOCCOCCNc1nc(N2CCN(C(=O)CCCCCCCCCCNC(=O)[C@H]([C@@H](C)CC)n3cc(CCCCN=C(N)N)nn3)CC2)nc(N2CCN(C(=O)CCCCCCCCCCNC(=O)[C@H](CCCCN)n3cc(C)nn3)CC2)n1,21.4
9,CCCCCCCCCCCCCCCC[n+]1ccc(/C=N/O)cc1,29.3
10,C[n+]1c(-c2ccccc2)c2cc(N)ccc2c2ccc(N)cc21,24.5
11,C#CCOCCOCCOCCNc1nc(N2CCN(C(=O)CCCCCCCCCCNC(=O)[C@H](CO)n3cc(CCCSC)nn3)CC2)nc(N2CCN(C(=O)CCCCCCCCCCNC(=O)[C@H](CCCCN)n3cc(CCO)nn3)CC2)n1,36.3
12,C#CCOCCOCCOCCNc1nc(N2CCN(C(=O)CCCCCCCCCCNC(=O)Cn3cc(CCCCCN)nn3)CC2)nc(N2CCN(C(=O)CCCCCCCCCCNC(=O)[C@H]([C@@H](C)CC)n3cc(CCCCCN)nn3)CC2)n1,24.3
